Test results as given in patent US8686045B2 (priority 2005, dated 2014).
“Also recorded” adds a separate entry of the source. Where a SMILES comes first, the peptide text is derived from it. [ ]: non-standard residue; d: D form. pGlu = O=C1CC[CH](C(=O)O)N1

Columns and labels:
[1] = test system: human SH-SY5Y neuroblastoma cells
Excerpt: Exposure of SH-SY5Y cells to 1-methyl-4-phenylpyridinium (MPP^+) with resulting cell death is a well-characterized model of Parkinson's disease (PD). […] BDNF has also been previously shown to protect dopaminergic neurons. Further, MPP^+ causes a PD-like condition in primates.
For the Parkinson's disease model assays, human SH-SY5Y cells were used after terminal differentiation into a dopaminergic phenotype (Presgraves. S. P., et al. (2004) Exp Neruol 190, 157-170). Human SH-SY5Y neuroblastoma cells were propagated to confluence in Dulbecco's Modified Eagle's media (DMEM) supplemented with 10% fetal calf serum, 100 μg/mL penicillin, 100 μg/mL streptomycin, 0.25 μg/mL amphotericin B, and […] non-essential amino acids and then sub-cultured for differentiation. For differentiation, the cells were incubated in same media containing 10 μM retinoic acid for 3 days; then the media was removed and replaced with media containing 160 nM of the phorbol ester 12-O-tetradecanoyl-phorbol-13-acetate (TPA) for 3 days of differentiation. The cells were then administered a range dose of BD2-4 or BDNF (1×10^−12 M to […]) in DMEM for 30 mins for three days prior to addition of 100 μM MPP^+. Following transfer of MPP^+ to the media, sister cultures were tested at 6, 12, 24, and 48 hrs for the cytotoxicity of MPP^+ as measured by the MTT and lactate dehydrogenase method (LDH) assays which accurately measure different aspects of cell death. In addition, the neuroprotective effects of a fixed dose of BD2-4 and BDNF on MPP^+ induced cell death were tested for in the presence and absence of TrkB inhibitor K252a (200 nM).

DARP32-positive neurons = assay: Quinolinic acid-induced death, DARP32-positive neurons only; format: cell-based, mouse
Protocol: FIG. 6C is a bar graph of the results of a study similar to that described for FIG. 6B only using Darp32-positive neurons.
A study similar to the one shown in FIG. 6B was conducted in which only DARP32-positive neurons were assessed. DARP32-positive neurons represent the population within the striatum that are particularly vulnerable in HD.

[2] = test system: mouse E16 striatal neurons
Excerpt: Bars indicate mean±s.e.m.
CM represents culture medium and QUIN represents quinolinic acid. Bars indicate mean±s.e.m and *** indicates p<0.005 student t test.
The K252a inhibitor is a well-characterized inhibitor of TrkB receptor activation.

[3] = test system: E16 mouse hippocampal neurons; assay: Hippocampal neuron survival (morphology plus MTT conversion, 48 h); format: cell-based; conditions: for EC50 / Emax: Mus musculus, Hippocampal neuron, 48 h; for EC50: read-out: EC50 of neuron survival dose-response; for Emax: read-out: intrinsic activity
Protocol: FIGS. 3A-3E are a series of neuron survival dose response curves of BDNF (FIG. 3A), Compound 1 (also referred to as BD2-1, FIG. 3B) Compound 2 (also referred to as BD2-2, FIG. 3C), Compound 3 (also referred to as BD2-3, FIG. 3D), and Compound 4 (also referred to as BD2-4, FIG. 3E) using Mouse E16 hippocampal neurons. Survival was determined as the total number of cells in each well that were both morphologically intact and filled with blue formazan MTT conversion product (Longo, F. M., Manthorpe, M. Xie, Y. M., and Varon, S. (1997) J Neurosci Res. 48, 1-17). Counts were normalized to survival achieved with 25 ng/mL BDNF. Survival was assessed at 48 hrs.
Hippocampal neurons were prepared from E16-17 mouse embryos as previously described (Yang, T. et al. (2003) J Neurosci 23, 3353-3363). Low density cultures were initiated in poly-L-lysine coated A/2 plates by adding 25 μl of cell suspension (2000 neurons/well; 12,500 cells/cm^2), 25 μl of DMEM containing 10% FBS, and different concentrations of recombinant BDNF, NGF, or TrkB-binding compounds to each well.
After 48 hours in culture, cell survival was assessed as previously described (Longo, F. M., Manthorpe, M., Xie, Y. M., Varon, S. (1997) J Neurosci Res 48, 1-17) using a combination of standard morphological criteria along with visual determination of whether a given cell converted MTT to its blue formazan product. Briefly, the number of surviving neurons was determined by counting the total number of cells in each well that were both morphologically intact and filed with blue product (Longo F. M., Manthorpe. M., Xie, Y. M. Varon, S. (1997) J Neurosci Res 48, 1-17). For each neurotrophin or compound concentration, duplicate wells were counted and the resulting values averaged. […] Counts were normalized to survival achieved with 25 ng/ml BDNF or to baseline survival. Fitting of dose-responsive curves was performed with SIGMAPLOT™ obtained from SYSTAT Software Inc. (Richmond, Calif., United States of America).
In order to understand the mechanisms of action of the BDNF loop 2 mimetics and to test the conjecture that they work via the targeted receptor, TrkB, the dose-dependent relationships of the survival-promoting activities of the mimetics was compared to BDNF using embryonic hippocampal neurons in culture conditions in which BDNF promotes neural survival. In the cultures, neurotrophic activity was mediated by BDNF principally through TrkB and p75^NTR, as they express little TrkA (Brann, A. B., et al. (1999) J Neurosci 19, 8199-8206; Bui, N. T., et al. (2002) J Neurochem 81, 594-605).

[4] = test system: E16-17 hippocampal neurons; assay: Aβ oligomer-induced neuronal degeneration (Alzheimer's disease model); format: cell-based, mouse
Protocol: Neuronal cell survival in culture medium (CM) and with the addition of 10 μM AβScrambled oligomer are shown in the two bars on the left-hand side of the graph […]. Cells were also treated with 10 μM Aβ1-42 alone or in combination with NGF (100 ng/mL), NGF mimetic LM11A-31 (100 nM), a combination of NGF and LM11A-31, Compound 4 (BD2-4, 500 nM), Compound 24 (BD2-24, 500 nM), or either 20 or 100 ng/mL BDNF, as indicated under each bar. […] Mean+SE are shown and ***p<0.001 for survival above CM baseline.
The ability of the BDNF mimetics to prevent Aβ-induced neuronal degeneration was tested as a model of the compounds' ability to treat Alzheimer's disease. E16-17 hippocampal neurons were matured for 6 days and then incubated for 3 days with the indicated combinations of Aβ oligomer preparations (Dahigren, K. N., et al. (2002) J Biol Chem 277, 32046-32053), neurotrophins and neurotrophin mimetics. Following the three day incubation, neuronal survival was assessed using standard morphological criteria (Massa, S. M., et al. (2006) J Neurosci 26, 5288-5300.).

[5] = test system: E16 mouse hippocampal neurons; assay: Hippocampal neuron survival (morphology plus MTT conversion, 48 h); format: cell-based; conditions: in the presence of a maximally effective BDNF concentration (50 ng/mL)
TrkC = biological target: T1, TrkC (Homo sapiens, UniProt Q16288); assay: Trk phosphorylation at Y490, Western blot, NIH3T3 cells expressing TrkC; format: cell-based
T1 construct: expressed in transfected cells; host or cells: NIH3T3
Protocol: FIG. 5B is a digital composite image of Western blots monitoring TrkC activation as indicated by promotion of Trk phosphorylation at Y490 in NIH3T3 cells expressing TrkC. […] CM represents culture medium.
(§1) Western blots were performed as described previously (Yang, T. et al. (2003) J Neurosci 23, 3353-3363). Western blot signals were detected using the ECL Chemiluminescence System obtained by Amersham (Piscataway, N.J., United States of America) (Yang, T. et al. (2003) J Neurosci 23, 3353-3363). To detect the presence of anti-Trk antibodies, blots were probed with horseradish peroxidase-linked goat anti-rabbit IgG obtained from Amersham/Pharmacia Biotech (Piscataway, N.J., United States of America). Signals were detected by the ECL chemiluminescence system obtained from Amersham Biosciences (Piscataway, N.J., United States of America). To control for variation in protein loading, the blot was stripped and reprobed with β-actin monoclonal antibody obtained from Sigma (St. Louis, Mo., United States of America).
(§2) In order to assess the interactions of the BDNF loop 2 mimetic compounds with TrkB receptors, the ability of Compound 4 to activate TrkA, TrkB, and TrkC was compared in a series of Western blotting experiments.
In FIG. 5B, NIH3T3 cells expressing TrkC were used. The bottom panel indicates the total amount of TrkC present by probing with anti-TrkC antibodies.

TrkB = biological target: T2, TrkB (Homo sapiens, UniProt Q16620); assay: Trk phosphorylation at Y490, Western blot, NIH3T3 cells expressing TrkB; format: cell-based
T2 construct: expressed in transfected cells; host or cells: NIH3T3
Protocol: (§3) CM represents culture medium.
as §1, §2
(§4) In the bottom two panels of FIG. 5A, NIH3T3 cells expressing TrkA were used.

TrkA = biological target: T3, TrkA (Homo sapiens, UniProt P04629); assay: Trk phosphorylation at Y490, Western blot, NIH3T3 cells expressing TrkA; format: cell-based
T3 construct: expressed in transfected cells; host or cells: NIH3T3
Protocol: as §3, §1, §2, §4

T1 sequence (Q16288 32-839, species assumed): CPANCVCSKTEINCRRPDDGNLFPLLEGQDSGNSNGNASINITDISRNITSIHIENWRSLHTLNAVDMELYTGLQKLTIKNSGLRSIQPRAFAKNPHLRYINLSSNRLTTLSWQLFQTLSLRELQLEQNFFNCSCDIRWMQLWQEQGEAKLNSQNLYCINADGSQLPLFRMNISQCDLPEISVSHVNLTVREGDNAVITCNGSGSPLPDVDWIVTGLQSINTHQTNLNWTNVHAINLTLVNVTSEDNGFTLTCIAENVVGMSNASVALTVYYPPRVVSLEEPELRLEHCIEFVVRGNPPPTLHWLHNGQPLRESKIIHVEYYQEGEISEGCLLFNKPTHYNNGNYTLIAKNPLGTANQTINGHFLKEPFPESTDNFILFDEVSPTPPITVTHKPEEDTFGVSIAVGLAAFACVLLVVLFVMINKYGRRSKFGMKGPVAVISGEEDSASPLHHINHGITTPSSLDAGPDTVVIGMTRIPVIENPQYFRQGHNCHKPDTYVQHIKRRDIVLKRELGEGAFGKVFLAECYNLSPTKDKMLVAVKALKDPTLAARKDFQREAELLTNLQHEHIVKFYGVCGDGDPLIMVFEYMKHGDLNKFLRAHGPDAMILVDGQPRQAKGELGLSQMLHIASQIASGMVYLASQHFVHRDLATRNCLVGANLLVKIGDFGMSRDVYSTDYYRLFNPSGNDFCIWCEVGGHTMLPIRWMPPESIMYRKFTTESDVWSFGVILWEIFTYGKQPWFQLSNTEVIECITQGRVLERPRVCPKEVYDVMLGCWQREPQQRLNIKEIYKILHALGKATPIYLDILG
T3 sequence (P04629 33-796, species assumed): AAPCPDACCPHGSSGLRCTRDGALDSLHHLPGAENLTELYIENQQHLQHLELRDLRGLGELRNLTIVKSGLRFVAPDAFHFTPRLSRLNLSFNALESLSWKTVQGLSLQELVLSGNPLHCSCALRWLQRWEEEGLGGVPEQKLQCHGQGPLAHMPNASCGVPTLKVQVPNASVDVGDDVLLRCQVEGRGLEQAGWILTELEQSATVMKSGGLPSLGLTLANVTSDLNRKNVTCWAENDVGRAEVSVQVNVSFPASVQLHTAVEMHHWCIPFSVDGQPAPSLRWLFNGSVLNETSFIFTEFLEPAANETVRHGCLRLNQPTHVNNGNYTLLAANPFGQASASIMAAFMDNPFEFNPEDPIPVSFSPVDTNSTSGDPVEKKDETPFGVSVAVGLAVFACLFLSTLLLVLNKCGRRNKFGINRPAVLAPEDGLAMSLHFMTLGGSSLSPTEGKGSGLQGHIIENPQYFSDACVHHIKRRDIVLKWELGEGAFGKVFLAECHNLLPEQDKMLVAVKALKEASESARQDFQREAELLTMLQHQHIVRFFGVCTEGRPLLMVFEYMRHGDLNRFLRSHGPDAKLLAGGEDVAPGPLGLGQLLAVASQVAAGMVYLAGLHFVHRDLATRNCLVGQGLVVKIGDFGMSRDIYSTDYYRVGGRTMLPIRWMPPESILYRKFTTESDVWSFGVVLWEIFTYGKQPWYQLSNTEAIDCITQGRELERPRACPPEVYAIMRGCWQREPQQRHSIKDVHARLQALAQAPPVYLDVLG
T2 sequence (Q16620 32-822, species assumed): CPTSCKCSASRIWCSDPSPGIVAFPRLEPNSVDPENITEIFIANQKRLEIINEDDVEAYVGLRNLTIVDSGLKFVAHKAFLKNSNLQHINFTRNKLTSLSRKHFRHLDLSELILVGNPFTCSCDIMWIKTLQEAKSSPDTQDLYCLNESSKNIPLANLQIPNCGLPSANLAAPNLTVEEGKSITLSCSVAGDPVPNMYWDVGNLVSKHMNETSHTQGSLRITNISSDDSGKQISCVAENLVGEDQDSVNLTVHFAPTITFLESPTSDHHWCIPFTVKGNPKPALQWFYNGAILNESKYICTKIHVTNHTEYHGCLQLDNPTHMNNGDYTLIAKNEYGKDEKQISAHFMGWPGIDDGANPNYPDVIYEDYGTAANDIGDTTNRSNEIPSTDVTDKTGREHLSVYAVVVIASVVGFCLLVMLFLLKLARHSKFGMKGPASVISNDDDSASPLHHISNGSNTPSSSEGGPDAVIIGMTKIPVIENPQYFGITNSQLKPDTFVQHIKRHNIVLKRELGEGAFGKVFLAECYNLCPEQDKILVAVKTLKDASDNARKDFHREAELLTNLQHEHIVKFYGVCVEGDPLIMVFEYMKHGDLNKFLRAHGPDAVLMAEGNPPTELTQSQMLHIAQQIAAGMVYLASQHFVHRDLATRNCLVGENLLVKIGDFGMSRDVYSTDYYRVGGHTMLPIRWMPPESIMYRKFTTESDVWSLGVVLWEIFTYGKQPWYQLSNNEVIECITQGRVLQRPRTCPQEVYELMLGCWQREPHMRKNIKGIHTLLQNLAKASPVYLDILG

COC(=O)[C@@]1(O)C[C@H]2O[C@]1(C)n1c3ccccc3c3c4c(c5c6ccccc6n2c5c31)C(=O)NC4 [Compound K252a]
effect on cell survival, inhibitor alone ([1]; K252a (200 nM) versus culture medium alone): small effect on lowering cell survival | effect of K252a on prevention of cell death by BDNF and BD2-4 (DARP32-positive neurons; DARP32-positive neurons): decreased the ability of BDNF and BD2-4 to prevent cell death | effect of K252a on quinolinic acid-induced death ([2]; K252a without BDNF or BD2-4): no effect on quinolinic acid-induced death | effect of K252a on prevention of death by BDNF and BD2-4 ([2]; quinolinic acid-treated striatal neurons): block the ability of BDNF and BD2-4 to prevent death

O=C(O)c1cccnc1C(=O)O [quinolinic acid]
death of neurons ([2]; quinolinic acid at 7.5 mM versus culture medium alone): approximately 50%

COC(=O)C(Cc1c[nH]c2ccccc12)NC(=O)C(Cc1c[nH]cn1)NC(=O)C1CCC(=O)N1 (stereo not drawn) [Compound 1] ([pGlu]-His-Trp-OMe; configuration not given here)
EC50 [3]: 0.1 to 1 nM | Emax [3]: 50 to 200%

NC(=O)NN=C1c2cc(S(=O)(=O)NCCO)ccc2-c2ccc(S(=O)(=O)NCCO)cc21 [Compound 2]
EC50 [3]: 0.1 to 1 nM | Emax [3]: 50 to 200%

O=C(NCCO)c1cc(C(=O)NCCO)cc(C(=O)NCCO)c1 [Compound 4]
block of death-inducing activity of MPP+ ([1]; MPP+ 100 μM): significantly blocked to a similar extent | blocking of Aβ-induced degeneration [4]: as effective as BDNF in blocking Aβ-induced degeneration | effect on BDNF activity (partial agonism) [5]: partial agonist of BDNF; also recorded: causes an inhibition of BDNF activity | prevention of death of hippocampal neurons / neurotrophic effect ([3]; E16 hippocampal neurons): neurotrophic effects similar to that of BDNF; also recorded: prevents the death of E16 hippocampal neurons | EC50 [3]: 0.1 to 1 nM | Emax [3]: 50 to 200% | TrkC activation (Trk phosphorylation at Y490) (TrkC): do not activate TrkC | protection of DARP32-positive neurons (DARP32-positive neurons; quinolinic acid-induced death): protects DARP32-positive neurons with an efficacy similar to that of BDNF | TrkB activation (Trk phosphorylation at Y490) (TrkB): activate TrkB | TrkA activation (Trk phosphorylation at Y490) (TrkA): not TrkA; also recorded: do not

CC[C@H](C)[C@H](N)C(=O)NCCN1CCOCC1 [LM11A-31, reference compound]
blocking of Aβ-induced degeneration [4]: blocked Aβ-induced degeneration | blocking activity in combination with NGF ([4]; LM11A-31 100 nM plus NGF 100 ng/mL, 10 μM Aβ1-42): blocked by NGF

COc1ccc(-c2csc(N/N=C/c3ccc(O)cc3O)n2)cc1 [Compound 24]
blocking of Aβ-induced degeneration [4]: as effective as BDNF in blocking Aβ-induced degeneration

C[n+]1ccc(-c2ccccc2)cc1 [MPP^+, 1-methyl-4-phenylpyridinium]
cell death, toxin alone ([1]; MPP+ 100 μM): promotes death of essentially all cells

CC(=O)Nc1ccc(/C=C(\C#N)c2nn(CCO)c(N)c2C#N)cc1 [Compound 3]
EC50 [3]: 0.1 to 1 nM | Emax [3]: 50 to 200%
